The text below walks through data of a melting point compilation (Tetko et al.; mined from patent text by program, amines drawn as free bases though some values may be those of a salt).

`Cc1ccc(Cn2c3c(c4cc(OCc5ccccc5)ccc42)C(=O)C(=O)OC3)cc1`: the melting point fell in the range of 206 to 207 °C.
Take `CCOC(=O)c1cccc2[nH]c(=O)oc(=O)c12`: the melting point is 188 to 190 °C.
In turn, `COC[C@](C#N)(C(=O)NCC(C)(C)C)[C@H](c1ccccc1OC)c1cccc2ccccc12` (relative stereo) gave a melting point of 185 to 186 °C.
`CC(C)n1cc(-c2nn(-c3cccc(C(F)(F)F)c3)ccc2=O)c(-c2ccccc2)n1` showed a melting point of 138 to 140 °C.
With `COC(=O)c1ccc(CSCC(=O)[C@H](Cc2ccccc2)NC(=O)[C@H](CC(C)C)NC(=O)OCc2ccccc2)o1`, the melting point lay in the range of 85 to 93 °C.
With `N[C@H]1CCCC[C@H]1CCC(O)(P(=O)(O)O)P(=O)(O)O` (relative stereo), the melting point lay within 131 to 133 °C.
On to `Cc1cccc(NC(=O)NCC(=O)N(CC(=O)OC(C)(C)C)c2ccc3c(c2)OCO3)c1`, for which the melting point was found to be 142 °C.
Regarding `COC(=O)CC(O)CCSc1cc(C(C)(C)C)c(O)c(C(C)(C)C)c1` (stereo unspecified), the melting point lay in the range of 77 to 80 °C.
With `CCCc1c(CSc2nccc(OCC(=O)O)n2)ccc(C(C)=O)c1O`, the melting point was 174 to 178 °C.
In turn, `CCOC(=O)C1[C@@H]2[C@@H](O)[C@@H]3O[C@H](c4cccc(OC)c4)OC[C@H]3O[C@H]12` (stereo partly specified) showed a melting point of 107 °C.
`Cn1cnc(COc2nn3c(-c4ccon4)nnc3c3ccccc23)c1` had a melting point of 191 to 192 °C.
In the case of `OC1(c2cccn2Cc2ccccc2F)CCN(CCCc2noc3cc(F)ccc23)CC1`, the melting point fell in the range of 100 to 104 °C.
`CC(=O)CSc1cc(C(C)(C)C)c(O)c(C(C)(C)C)c1`: the melting point was 105 to 106 °C.
For `Cc1c(C(F)(F)C(F)(F)F)oc2c(Br)cccc12`, the melting point is 65 °C.
`CCn1ccc(Nc2cc(-c3cccc(N4Cc5cc(C(C)(C)C)ccc5C4=O)c3CO)cn(C)c2=O)n1` displayed a melting point of 175 to 177 °C.
In turn, `CCCCCCCCCCCc1cc2ccc(C(=O)O)cc2[nH]1` yielded a melting point of 156 to 158 °C.
Take `Cc1ccc(N2C(=O)CN3C(=O)CC[C@@H]32)cc1`: the melting point lay in the range of 149 to 150 °C.
The value for `COc1cc2c(cc1C(F)(F)F)N(C(=O)Nc1ccc3c(ccn3Cc3ccncc3)c1)CC2` was 215 to 218 °C; that for `Brc1ccc2ccn(Cc3ccccc3)c2c1` was 85 to 88 °C.
`CCCCCCCCCCCCCCCCCCOC(=O)N(C)CC(O)C(O)C(O)C(O)CO` (stereo unspecified) gave a melting point of 85 °C.
Compound `O=c1c2ccccc2nc(-c2sc(Nc3ccccc3)nc2-c2ccccc2)n1-c1ccccc1Cl` registered a melting point of 210 to 212 °C.
Take `CSc1nn2c(N3CCNCC3)cc(C)nc2c1S(=O)(=O)c1ccccc1`: the melting point lay within 137 to 139 °C.
The compound `Nc1cc(Sc2ccc3c(C(=O)Nc4ccc(F)c(C(F)(F)F)c4)cccc3c2)ncn1` returned a melting point of 221 °C.
With `Cc1c(NC(=O)CC(C)(C)C)c2c(c3c1C(c1ccc(C(C)C)cc1)CO3)CCCC2` (stereo unspecified), the melting point lay within 183 to 184 °C.
`CCOc1nn(Cc2ccc(OC)c(OCc3nc(-c4ccccc4)oc3C)c2)cc1CCC(=O)O` showed a melting point of 136 to 137 °C.
The compound `Cc1c(C(=O)O)ccn2nc(-c3ccccc3)nc12` registered a melting point of more than 250 °C.
